According to patent US6653476B2, “Thienopyridine derivatives, their production and use” (Takeda Chemical Industries, Ltd., priority 2000, dated 2003):

Tested on: not given
Experiment: not given
Conditions: not given

Question: For CN(C)CC(=O)Oc1ccc(-c2c(Cl)c(CN3C(=O)CCC3=O)nc3sc4c(c23)CCS(=O)(=O)C4)cc1.Cl, which melting point is on record?
Answer: Its melting point is 199 to 200 °C.

Question: Which melting point does the source give for COc1ccc(-c2c(Cl)c(CN3C(=O)CCC3=O)nc3sc4c(c23)CC[S+]([O-])C4)cc1 (centres unmarked) [Example 22, 1-{[3-Chloro-4-(4-methoxyphenyl)-7-oxido-5,8-dihydro-6H-thiopyrano[4′,3′:4,5]thieno[2,3-b]pyridin-2-yl]methyl}-2,5-pyrrolidinedione] here?
Answer: Its melting point is 268 to 269 °C.

Question: With COc1ccc(-c2c(Cl)c(CN3C(=O)CCC3=O)nc3sc4c(c23)CC[S@+]([O-])C4)cc1 [Example 46, (S)-1-{[3-chloro-4-(4-methoxyphenyl)-7-oxido-5,8-dihydro-6H-thiopyrano[4′,3′:4,5]thieno[2,3-b]pyridin-2-yl]methyl}-2,5-pyrrolidinedione] as the compound, how does the melting point read?
Answer: Its melting point is 217 to 218.5 °C (dec.).

Question: Which melting point does the source give for COc1ccc(-c2c(Cl)c(CN3C(=O)CCC3=O)nc3sc4c(F)c(OC)ccc4c23)cc1 [Example 60, 1-{[3-chloro-8-fluoro-7-methoxy-4-(4-methoxyphenyl)[1]-benzothieno[2,3-b]pyridin-2-yl]methyl}-2,5-pyrrolidinedione] here?
Answer: Its melting point is 215 to 216 °C.

Question: For CC(=O)Oc1ccc(-c2c(Cl)c(CN3C(=O)CCC3=O)nc3sc4c(c23)CCS(=O)(=O)C4)cc1 [Example 64, 4-{3-chloro-2-[(2,5-dioxo-1-pyrrolidinyl)methyl]-7,7-dioxido-5,8-dihydro-6H-thiopyrano[4′,3′:4,5]thieno[2,3-b]pyridin-4-yl}phenylacetate], which melting point is on record?
Answer: The melting point was 272 to 273 °C.

Question: Which melting point does the source give for CCC(=O)Oc1ccc(-c2c(Cl)c(CN3C(=O)CCC3=O)nc3sc4c(c23)CCS(=O)(=O)C4)cc1 [Example 65] here?
Answer: Its melting point is 268 to 269 °C.

Question: With CCOC(=O)COc1ccc(-c2c(Cl)c(CN3C(=O)CCC3=O)nc3sc4c(c23)CCS(=O)(=O)C4)cc1 [Example 110, ethyl (4-{3-chloro-2-[(2,5-dioxo-1-pyrrolidinyl)methyl]-7,7-dioxidO-5,8-dihydro-6H-thiopyrano[4′,3′:4,5]thieno[2,3-b]pyridin-4-yl}phenoxy)acetate] as the compound, how does the melting point read?
Answer: The melting point was 215 to 216 °C.

Question: With CC(C)(C)OC(=O)COc1ccc(-c2c(Cl)c(CN3C(=O)CCC3=O)nc3sc4c(c23)CCSC4)cc1 [Example 112, tert-butyl (4-{3-chloro-2-[(2,5-dioxo-1-pyrrolidinyl)methyl]-5,8-dihydro-6H-thiopyrano[4′,3′:4,5]-thieno[2,3-b]pyridin-4-yl}phenoxy)acetate] as the compound, how does the melting point read?
Answer: The melting point was 191 to 192 °C.

Question: With CC(C)(C)OC(=O)COc1ccc(-c2c(Cl)c(CN3C(=O)CCC3=O)nc3sc4c(c23)CC[S+]([O-])C4)cc1 (centres unmarked) [Example 113, tert-butyl (4-{3-chloro-2-[(2,5-dioxo-1-pyrrolidinyl)methyl]-7-oxido-5,8-dihydro-6H-thiopyrano[4′,3′:4,5]thieno(2,3-b]pyridin-4-yl}phenoxy)-acetate] as the compound, how does the melting point read?
Answer: Its melting point is 175 to 176 °C.

Question: Which melting point does the source give for CC(C)(C)OC(=O)COc1ccc(-c2c(Cl)c(CN3C(=O)CCC3=O)nc3sc4c(c23)CCS(=O)(=O)C4)cc1 [Example 114, tert-butyl (4-{3-chloro-2-[(2,5-dioxo-1-pyrrolidinyl)methyl]-7,7-dioxido-5,8-dihydro-6H-thiopyrano[4′,3′:4,5]thieno[2,3-b]pyridin-4-yl}phenoxy)acetate] here?
Answer: The melting point was 204 to 205 °C.

Question: With O=C(O)COc1ccc(-c2c(Cl)c(CN3C(=O)CCC3=O)nc3sc4c(c23)CC[S+]([O-])C4)cc1 (centres unmarked) [Example 115, (4-{3-chloro-2-[(2,5-dioxo-1-pyrrolidinyl)methyl]-7-oxido-5,8-dihydro-6H-thiopyrano[4′,3′:4,5]thieno[2,3-b]pyridin-4-yl}phenoxy)acetic acid] as the compound, how does the melting point read?
Answer: Its melting point is 205 to 206 °C.

Question: Which melting point does the source give for O=C(O)COc1ccc(-c2c(Cl)c(CN3C(=O)CCC3=O)nc3sc4c(c23)CCS(=O)(=O)C4)cc1 [Example 116, (4-{3-chloro-2-[(2,5-dioxo-1-pyrrolidinyl)methyl]-7,7-dioxido-5,8-dihydro-6H-thiopyrano-[4′,3′:4,5]-thieno[2,3-b]pyridin-4-yl}phenoxy)acetic acid] here?
Answer: Its melting point is 260 to 261 °C.

Tested on: Adjuvant Arthritis in Rats
Experiment: Effect on adjuvant arthritis in rats (footpad swelling)
Format: in vivo
Conditions: male Lewis rats, 3.13 mg/kg/day orally once daily for 14 days, left footpad edema on Day 14; ** p < 0.01 vs. control
Method: The test compound was suspended in 0.5% methyl cellulose and administered orally once daily for 14 days to male Lewis rats (7-week old, Japan Clea), which had been sensitized by the intradermal injection of 0.05 ml Freund's complete adjuvant (0.5% suspension of killed Mycobacterium tuberculosis in liquid paraffin) into the right hind footpad. Immediately before the sensitization (Day 0) and on 14 days after the administration (Day 14), the volume of the edema on the left footpad was measured by using a plethysmometer (manufactured by Ugo Basile Company, Italy) and the suppression rate (%) of footpad swelling relative to the unsensitized rats was calculated according to the following equation.
Suppression rate of footpad swelling (%)={1-[(volume of footpad edema in the treatment group)−(volume of footpad edema in the unsensitized group)]/[(volume of footpad edema in the non-treatment group)−(volume of footpad edema in the unsensitized group)]}×100
The results were expressed by the mean±S.E. in each group (n=6) and tested by Dunnet's comparison with a significance level of 5%.

Question: With “3-chloro-2-[(2,5-dioxopyrrolidin-1-yl)methyl]-5,6,7,8-tetrahydro-7-oxo-4-(4-methoxyphenyl)[1]-benzothieno[2,3-b]pyridine ethylene ketal [Example 13]” as the compound, how does the “Suppression rate of footpad swelling (%)” value read?
Answer: Its value is 77** %.

Question: For COc1ccc(-c2c(Cl)c(CN3C(=O)CCC3=O)nc3sc4c(c23)CC[S+]([O-])C4)cc1 (centres unmarked) [Example 22, 1-{[3-Chloro-4-(4-methoxyphenyl)-7-oxido-5,8-dihydro-6H-thiopyrano[4′,3′:4,5]thieno[2,3-b]pyridin-2-yl]methyl}-2,5-pyrrolidinedione], which “Suppression rate of footpad swelling (%)” value is on record?
Answer: The value was 88** %.
